According to PMC10945555, “Improving Activity of New Arylurea Agents against Multidrug-Resistant and Biofilm-Producing Staphylococcus epidermidis” (ACS Medicinal Chemistry Letters, 2024):
Values after ≈ are worked out from the molar mass of the structure shown. Where two headings read alike, the source gives them in different places.

Legend:
[1] = system: Staphylococcus aureus ATCC BAA-976; assay: MIC, broth microdilution, MDR/BPSA reference strain; format: cell-based; conditions: ATCCBAA976; Staphylococcus aureus ATCC BAA-976; read-out: MIC MDR/BPSA
From the text: These strains included susceptible, multidrug-resistant, and biofilm-producing strains of S. epidermidis and S. aureus (MSSE, MDR/BPSE, and MDR/BPSA, respectively). The cornerstone antibiotic linezolid served as a positive control (Table 1). The impact of structural modifications at the aryloxy fragment and the aromatic moiety bound to the propyl linker on the inhibitory activity was initially investigated. […] Further optimization focused on evaluating the impact of the type of substituent and its position on the arylsulfonamide fragment’s activity.
(§1) 2 Biological assay protocols
(§2) Microbiological tests were carried out under aseptic conditions in a laminar chamber of the 2nd […]
(§3) (BioTectum 1.2, Alchem Poland). The assessment of antimicrobial activity was carried out for final compounds in the form of free bases, soluble in DMSO (Merck, Germany), at the initial […]
(§4) concentration of 1 mg/mL. […]
were provided by Cayman Chemical, USA.
The activity of all newly synthesized compounds was tested in vitro on a panel of selected reference strains from the American Type Culture Collection (ATCC) of Gram-positive […]
(§5) 2.2 Effect of evaluated compounds on planktonic cells
(§6) The susceptibility of three reference bacterial strains (Staphylococcus epidermidis ATCC […]
(§7) Table S1) and 81 clinical MDR S. epidermidis (Table S2) to the tested compounds was assessed by determining the MIC value (Minimal Inhibitory Concentration) by microdilution in a liquid medium in 96-well flat-bottom cell culture plates (Nest Biotechnology Scientific, USA). The antibacterial properties of the compo unds were tested in the concentration range from 50 µg/mL to 0.1 µg/mL by making a series of double dilutions of the compound in liquid Mueller -Hinton II Broth Cation Adjusted (MHB II, BBL TM, USA) according to the European Committee on […]
(§8) Antimicrobial Susceptibility Testing guidelines (EUCAST).2,3 The determinations were performed twice. The MIC50 and MIC90 values were determined for each of the tested

[2] = system: clinical MDR Staphylococcus epidermidis isolates; assay: MIC, broth microdilution, 81 clinical MDR strains; format: cell-based; conditions: Staphylococcus epidermidis
Procedure: as §1, §2, §3, §4
were provided by Cayman Chemical, USA. […]
The antibacterial activity of selected compounds was also tested on a panel of 81 unrelated, multidrug -resistant clinical strains of Staphylococcus epidermidis from the own collection of the Department of Pharmaceutical Microbiology of the Jagiellonian University Medical College.
as §5, §6, §7, §8

## CC(=O)NC[C@H]1CN(c2ccc(N3CCOCC3)c(F)c2)C(=O)O1 [linezolid, reference compound]
[1]
  MIC: 1.6 µg/mL (≈ 4.74 µM)
[2]; clinical strain 1 (Table S2), read-out: MIC
  MIC: 1.6 µg/mL (≈ 4.74 µM)
[2]; clinical strain 2 (Table S2), read-out: MIC
  MIC: 1.6 µg/mL (≈ 4.74 µM)
[2]; clinical strain 3 (Table S2), read-out: MIC
  MIC: 1.6 µg/mL (≈ 4.74 µM)
[2]; clinical strain 4 (Table S2), read-out: MIC
  MIC: 1.6 µg/mL (≈ 4.74 µM)
[2]; clinical strain 5 (Table S2), read-out: MIC
  MIC: 1.6 µg/mL (≈ 4.74 µM)
[2]; clinical strain 6 (Table S2), read-out: MIC
  MIC: 1.6 µg/mL (≈ 4.74 µM)
[2]; clinical strain 7 (Table S2), read-out: MIC
  MIC: 1.6 µg/mL (≈ 4.74 µM)
[2]; clinical strain 8 (Table S2), read-out: MIC
  MIC: 1.6 µg/mL (≈ 4.74 µM)
[2]; clinical strain 9 (Table S2), read-out: MIC
  MIC: 1.6 µg/mL (≈ 4.74 µM)
[2]; clinical strain 10 (Table S2), read-out: MIC
  MIC: 1.6 µg/mL (≈ 4.74 µM)
[2]; clinical strain 11 (Table S2), read-out: MIC
  MIC: 1.6 µg/mL (≈ 4.74 µM)
[2]; clinical strain 12 (Table S2), read-out: MIC
  MIC: 0.8 µg/mL (≈ 2.37 µM)
[2]; clinical strain 13 (Table S2), read-out: MIC
  MIC: 1.6 µg/mL (≈ 4.74 µM)
[2]; clinical strain 14 (Table S2), read-out: MIC
  MIC: 1.6 µg/mL (≈ 4.74 µM)
[2]; clinical strain 15 (Table S2), read-out: MIC
  MIC: 1.6 µg/mL (≈ 4.74 µM)
[2]; clinical strain 16 (Table S2), read-out: MIC
  MIC: 1.6 µg/mL (≈ 4.74 µM)
[2]; clinical strain 17 (Table S2), read-out: MIC
  MIC: 0.8 µg/mL (≈ 2.37 µM)
[2]; clinical strain 18 (Table S2), read-out: MIC
  MIC: 0.8 µg/mL (≈ 2.37 µM)
[2]; clinical strain 19 (Table S2), read-out: MIC
  MIC: 1.6 µg/mL (≈ 4.74 µM)
[2]; clinical strain 20 (Table S2), read-out: MIC
  MIC: 1.6 µg/mL (≈ 4.74 µM)
[2]; clinical strain 21 (Table S2), read-out: MIC
  MIC: 1.6 µg/mL (≈ 4.74 µM)
[2]; clinical strain 22 (Table S2), read-out: MIC
  MIC: 1.6 µg/mL (≈ 4.74 µM)
[2]; clinical strain 23 (Table S2), read-out: MIC
  MIC: 1.6 µg/mL (≈ 4.74 µM)
[2]; clinical strain 24 (Table S2), read-out: MIC
  MIC: 1.6 µg/mL (≈ 4.74 µM)
[2]; clinical strain 25 (Table S2), read-out: MIC
  MIC: 1.6 µg/mL (≈ 4.74 µM)
[2]; clinical strain 26 (Table S2), read-out: MIC
  MIC: 0.8 µg/mL (≈ 2.37 µM)
[2]; clinical strain 27 (Table S2), read-out: MIC
  MIC: 1.6 µg/mL (≈ 4.74 µM)
[2]; clinical strain 28 (Table S2), read-out: MIC
  MIC: 1.6 µg/mL (≈ 4.74 µM)
[2]; clinical strain 29 (Table S2), read-out: MIC
  MIC: 0.8 µg/mL (≈ 2.37 µM)
[2]; clinical strain 30 (Table S2), read-out: MIC
  MIC: 1.6 µg/mL (≈ 4.74 µM)
[2]; clinical strain 31 (Table S2), read-out: MIC
  MIC: 1.6 µg/mL (≈ 4.74 µM)
[2]; clinical strain 32 (Table S2), read-out: MIC
  MIC: 1.6 µg/mL (≈ 4.74 µM)
[2]; clinical strain 33 (Table S2), read-out: MIC
  MIC: 0.8 µg/mL (≈ 2.37 µM)
[2]; clinical strain 34 (Table S2), read-out: MIC
  MIC: 1.6 µg/mL (≈ 4.74 µM)
[2]; clinical strain 35 (Table S2), read-out: MIC
  MIC: 1.6 µg/mL (≈ 4.74 µM)
[2]; clinical strain 36 (Table S2), read-out: MIC
  MIC: 0.8 µg/mL (≈ 2.37 µM)
[2]; clinical strain 37 (Table S2), read-out: MIC
  MIC: 0.8 µg/mL (≈ 2.37 µM)
[2]; clinical strain 38 (Table S2), read-out: MIC
  MIC: 0.8 µg/mL (≈ 2.37 µM)
[2]; clinical strain 39 (Table S2), read-out: MIC
  MIC: 0.8 µg/mL (≈ 2.37 µM)
[2]; clinical strain 40 (Table S2), read-out: MIC
  MIC: 0.4 µg/mL (≈ 1.19 µM)
[2]; clinical strain 41 (Table S2), read-out: MIC
  MIC: 0.8 µg/mL (≈ 2.37 µM)
[2]; clinical strain 42 (Table S2), read-out: MIC
  MIC: 1.6 µg/mL (≈ 4.74 µM)
[2]; clinical strain 43 (Table S2), read-out: MIC
  MIC: 0.8 µg/mL (≈ 2.37 µM)
[2]; clinical strain 44 (Table S2), read-out: MIC
  MIC: 1.6 µg/mL (≈ 4.74 µM)
[2]; clinical strain 45 (Table S2), read-out: MIC
  MIC: 0.8 µg/mL (≈ 2.37 µM)
[2]; clinical strain 46 (Table S2), read-out: MIC
  MIC: 1.6 µg/mL (≈ 4.74 µM)
[2]; clinical strain 47 (Table S2), read-out: MIC
  MIC: 0.8 µg/mL (≈ 2.37 µM)
[2]; clinical strain 48 (Table S2), read-out: MIC
  MIC: 3.12 µg/mL (≈ 9.26 µM)
[2]; clinical strain 49 (Table S2), read-out: MIC
  MIC: 0.2 µg/mL (≈ 0.593 µM)
[2]; clinical strain 50 (Table S2), read-out: MIC
  MIC: 0.2 µg/mL (≈ 0.593 µM)
[2]; clinical strain 51 (Table S2), read-out: MIC
  MIC: 0.2 µg/mL (≈ 0.593 µM)
[2]; clinical strain 52 (Table S2), read-out: MIC
  MIC: 0.4 µg/mL (≈ 1.19 µM)
[2]; clinical strain 53 (Table S2), read-out: MIC
  MIC: 0.4 µg/mL (≈ 1.19 µM)
[2]; clinical strain 54 (Table S2), read-out: MIC
  MIC: 0.8 µg/mL (≈ 2.37 µM)
[2]; clinical strain 55 (Table S2), read-out: MIC
  MIC: 0.8 µg/mL (≈ 2.37 µM)
[2]; clinical strain 56 (Table S2), read-out: MIC
  MIC: 0.8 µg/mL (≈ 2.37 µM)
[2]; clinical strain 57 (Table S2), read-out: MIC
  MIC: 0.8 µg/mL (≈ 2.37 µM)
[2]; clinical strain 58 (Table S2), read-out: MIC
  MIC: 0.8 µg/mL (≈ 2.37 µM)
[2]; clinical strain 59 (Table S2), read-out: MIC
  MIC: 0.8 µg/mL (≈ 2.37 µM)
[2]; clinical strain 60 (Table S2), read-out: MIC
  MIC: 0.8 µg/mL (≈ 2.37 µM)
[2]; clinical strain 61 (Table S2), read-out: MIC
  MIC: 0.8 µg/mL (≈ 2.37 µM)
[2]; clinical strain 62 (Table S2), read-out: MIC
  MIC: 0.8 µg/mL (≈ 2.37 µM)
[2]; clinical strain 63 (Table S2), read-out: MIC
  MIC: 0.8 µg/mL (≈ 2.37 µM)
[2]; clinical strain 64 (Table S2), read-out: MIC
  MIC: 0.8 µg/mL (≈ 2.37 µM)
[2]; clinical strain 65 (Table S2), read-out: MIC
  MIC: 0.8 µg/mL (≈ 2.37 µM)
[2]; clinical strain 66 (Table S2), read-out: MIC
  MIC: 0.8 µg/mL (≈ 2.37 µM)
[2]; clinical strain 67 (Table S2), read-out: MIC
  MIC: 1.6 µg/mL (≈ 4.74 µM)
[2]; clinical strain 68 (Table S2), read-out: MIC
  MIC: 1.6 µg/mL (≈ 4.74 µM)
[2]; clinical strain 69 (Table S2), read-out: MIC
  MIC: 1.6 µg/mL (≈ 4.74 µM)
[2]; clinical strain 70 (Table S2), read-out: MIC
  MIC: 1.6 µg/mL (≈ 4.74 µM)
[2]; clinical strain 71 (Table S2), read-out: MIC
  MIC: 1.6 µg/mL (≈ 4.74 µM)
[2]; clinical strain 72 (Table S2), read-out: MIC
  MIC: 1.6 µg/mL (≈ 4.74 µM)
[2]; clinical strain 73 (Table S2), read-out: MIC
  MIC: 1.6 µg/mL (≈ 4.74 µM)
[2]; clinical strain 74 (Table S2), read-out: MIC
  MIC: 1.6 µg/mL (≈ 4.74 µM)
[2]; clinical strain 75 (Table S2), read-out: MIC
  MIC: 1.6 µg/mL (≈ 4.74 µM)
[2]; clinical strain 76 (Table S2), read-out: MIC
  MIC: 1.6 µg/mL (≈ 4.74 µM)
[2]; clinical strain 77 (Table S2), read-out: MIC
  MIC: 1.6 µg/mL (≈ 4.74 µM)
[2]; clinical strain 78 (Table S2), read-out: MIC
  MIC: 3.12 µg/mL (≈ 9.26 µM)
[2]; clinical strain 79 (Table S2), read-out: MIC
  MIC: 12.5 µg/mL (≈ 37.1 µM)
[2]; clinical strain 80 (Table S2), read-out: MIC
  MIC: 25 µg/mL (≈ 74.1 µM)
[2]; clinical strain 81 (Table S2), read-out: MIC
  MIC: 50 µg/mL (≈ 148 µM)
[2]; mean of MIC values against clinical MDR-SE isolates, read-out: mean MIC
  MIC: 2.3 µg/mL (≈ 6.82 µM)
[2]; 81 clinical strains, concentration inhibiting growth of 50% clinical isolates
  MIC50: 0.8 µg/mL (≈ 2.37 µM)
[2]; 81 clinical strains, concentration inhibiting growth of 90% of clinical isolates
  MIC90: 1.6 µg/mL (≈ 4.74 µM)
